Reference: ChEMBL document CHEMBL3792282, “Cinnamic acid amides from Tribulus terrestris displaying uncompetitive α-glucosidase inhibition” (Eur J Med Chem, 2016)
The source made the active and inactive calls. The rule behind the calls is not given here.

What was measured:
[1] = species: Homo sapiens; experiment: Inhibition of alpha-mannosidase (unknown origin) up to 200 uM
[2] = target: Alpha amylase (Homo sapiens) (UniProt P0DUB6); experiment: Inhibition of alpha-amylase (unknown origin) up to 200 uM
Chain of Alpha amylase (Homo sapiens) (P0DUB6 whole entry, looked up): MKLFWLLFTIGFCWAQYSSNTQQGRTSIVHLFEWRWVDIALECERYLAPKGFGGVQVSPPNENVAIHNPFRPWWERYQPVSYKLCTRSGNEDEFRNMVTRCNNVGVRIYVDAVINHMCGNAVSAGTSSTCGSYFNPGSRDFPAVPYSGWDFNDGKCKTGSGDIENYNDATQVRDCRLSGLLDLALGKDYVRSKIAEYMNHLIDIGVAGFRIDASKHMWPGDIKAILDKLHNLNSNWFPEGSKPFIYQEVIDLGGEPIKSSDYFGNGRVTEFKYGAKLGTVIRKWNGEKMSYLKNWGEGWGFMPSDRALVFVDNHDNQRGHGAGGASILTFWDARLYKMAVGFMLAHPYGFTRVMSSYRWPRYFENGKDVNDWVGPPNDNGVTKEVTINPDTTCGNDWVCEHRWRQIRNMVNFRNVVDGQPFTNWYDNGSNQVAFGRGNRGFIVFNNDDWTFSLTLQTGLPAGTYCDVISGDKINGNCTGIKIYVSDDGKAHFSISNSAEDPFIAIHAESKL

[3] = tested on: Saccharomyces cerevisiae; experiment: (§1) Inhibition of baker's yeast alpha-glucosidase using pNPG as substrate by spectrophotometry
[4] = as §1; parameters: species or system Saccharomyces cerevisiae
[5] = target: T1, Beta-glucosidase (Homo sapiens) (UniProt Q9HCG7); experiment: Inhibition of beta-glucosidase (unknown origin) up to 200 uM
T1 sequence (whole entry): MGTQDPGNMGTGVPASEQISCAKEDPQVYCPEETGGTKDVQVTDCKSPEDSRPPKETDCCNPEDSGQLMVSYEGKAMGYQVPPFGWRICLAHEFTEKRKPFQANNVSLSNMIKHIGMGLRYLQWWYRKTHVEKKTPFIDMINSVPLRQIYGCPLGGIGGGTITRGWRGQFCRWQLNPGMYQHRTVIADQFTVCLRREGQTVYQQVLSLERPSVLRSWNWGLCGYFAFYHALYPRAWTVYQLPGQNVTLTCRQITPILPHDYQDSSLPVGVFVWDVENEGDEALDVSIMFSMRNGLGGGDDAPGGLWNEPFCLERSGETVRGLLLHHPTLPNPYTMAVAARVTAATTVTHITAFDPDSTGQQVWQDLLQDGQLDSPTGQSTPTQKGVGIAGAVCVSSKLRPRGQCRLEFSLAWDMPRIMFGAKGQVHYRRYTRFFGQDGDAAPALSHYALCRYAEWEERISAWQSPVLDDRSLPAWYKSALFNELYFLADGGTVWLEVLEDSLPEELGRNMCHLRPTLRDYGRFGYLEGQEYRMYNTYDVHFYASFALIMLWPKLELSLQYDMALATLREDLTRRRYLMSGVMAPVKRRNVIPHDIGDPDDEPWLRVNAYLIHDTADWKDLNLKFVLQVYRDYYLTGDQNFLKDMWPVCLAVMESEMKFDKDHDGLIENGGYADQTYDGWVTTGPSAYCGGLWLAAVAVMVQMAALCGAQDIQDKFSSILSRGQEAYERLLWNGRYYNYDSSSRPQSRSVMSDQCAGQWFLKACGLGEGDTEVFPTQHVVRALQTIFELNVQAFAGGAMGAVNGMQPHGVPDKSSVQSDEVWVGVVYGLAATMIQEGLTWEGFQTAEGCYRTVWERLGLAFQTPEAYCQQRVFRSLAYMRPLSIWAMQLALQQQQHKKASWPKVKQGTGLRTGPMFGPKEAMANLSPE

[6] = tested on: Saccharomyces cerevisiae; experiment: Uncompetitive inhibition of baker's yeast alpha-glucosidase using pNPG as substrate assessed as ratio of Kik to Kiv at 0.39 uM by Lineweaver-Burk plot analysis
[7] = tested on: Saccharomyces cerevisiae; experiment: Uncompetitive inhibition of baker's yeast alpha-glucosidase using pNPG as substrate assessed as ratio of Kik to Kiv at 1.56 uM by Lineweaver-Burk plot analysis
[8] = tested on: Saccharomyces cerevisiae; experiment: Uncompetitive inhibition of baker's yeast alpha-glucosidase using pNPG as substrate assessed as ratio of Kik to Kiv at 0.78 uM by Lineweaver-Burk plot analysis
[9] = species: Homo sapiens; experiment: Inhibition of alpha-galactosidase (unknown origin) up to 200 uM
[10] = tested on: Saccharomyces cerevisiae; experiment: Uncompetitive inhibition of baker's yeast alpha-glucosidase using pNPG as substrate assessed as ratio of Kik to Kiv at 0.19 uM by Lineweaver-Burk plot analysis
[11] = Uncompetitive inhibition of baker's yeast alpha-glucosidase using pNPG as substrate by Cornish-Bowden plot analysis; parameters: species or system Saccharomyces cerevisiae

For `O=C(/C=C/c1ccc(O)cc1)NCCc1ccc(O)cc1` [N-P-COUMAROYL TYRAMINE], the inhibition [1] was “inactive”, the inhibition [2] was “inactive” and the inhibition [3] was “Dose-dependent effect”. The IC50 [4] was 0.42 µM, the inhibition [5] was “inactive” and the Ratio [6] was 1.04. For the same compound, the Ratio [7] was 1.03, the Ratio [8] was 1.05 and the inhibition [9] was “inactive”. The Ratio [10] was 1.03 and the Ki [11] was 0.35 µM.
In the case of `COc1cc(/C=C/C(=O)NCCc2ccc(O)cc2)ccc1O` [N-TRANS-FERULOYL TYRAMINE], the inhibition [1] is reported as “inactive”, the inhibition [2] is reported as “inactive” and the inhibition [3] is reported as “Dose-dependent effect”. The IC50 [4] was 10.6 µM, the inhibition [5] was “inactive” and the inhibition [9] was “inactive”. It also gave a Ki [11] of 11.3 µM.
In the case of `O=C(/C=C/c1ccc(O)cc1)NCCc1ccccc1`, the IC50 [4] is reported as 0.31 µM and the Ki [11] is reported as 0.29 µM.
With `O=C(/C=C/c1ccc(O)cc1)NCCc1ccc(F)cc1` the IC50 [4] was 1.22 µM and the Ki [11] was 1.38 µM.
With `O=C(/C=C/c1ccccc1)NCCc1ccc(O)cc1` the IC50 [4] was 215 µM.
With `COc1cc(/C=C/C(=O)NCC(O)c2ccc(O)cc2)ccc1O` (centres undefined) the inhibition [1] was “inactive”, the inhibition [2] was “inactive” and the inhibition [3] was “Dose-dependent effect”. For the same compound, the IC50 [4] was 188 µM, the inhibition [5] was “inactive” and the inhibition [9] was “inactive”.
In the case of `O=C(CCc1ccc(O)cc1)NCCc1ccc(O)cc1`, the IC50 [4] is reported as 19 µM and the Ki [11] is reported as 18.2 µM.
With `COc1cc(/C=C/C(=O)NCC(=O)c2ccc(O)cc2)ccc1O` the inhibition [1] was “inactive”, the inhibition [2] was “inactive” and the inhibition [3] was “Dose-dependent effect”. The IC50 [4] was 61.5 µM, the inhibition [5] was “inactive” and the inhibition [9] was “inactive”. The Ki [11] was 62.1 µM.
For `COc1cc(/C=C/C(=O)NC(O)C(=O)c2ccc(O)cc2)ccc1O` (centres undefined), the inhibition [1] was “inactive”, the inhibition [2] was “inactive” and the inhibition [3] was “Dose-dependent effect”. The IC50 [4] was 226 µM, the inhibition [5] was “inactive” and the inhibition [9] was “inactive”.
For `O=C(/C=C/c1ccc(O)cc1)NCCc1ccc(O)c(O)c1`, the IC50 [4] was 1.63 µM and the Ki [11] was 1.74 µM.
With `O=C(/C=C/c1ccc(O)c(O)c1)NCCc1ccc(O)cc1` the inhibition [1] was “inactive”, the inhibition [2] was “inactive” and the inhibition [3] was “Dose-dependent effect”. The IC50 [4] was 1.86 µM, the inhibition [5] was “inactive” and the inhibition [9] was “inactive”. For the same compound, the Ki [11] was 1.77 µM.
